Measurements: patent publication US20260007758A1, “SO[…]-2 RECEPTOR (SST2R) NON-PEPTIDE DRUG CONJUGATES AND USES THEREOF” (Crinetics Pharmaceuticals, Inc., priority 2024, published 2026)

Key:
Type in all cases: cell-based
[1] = target: T1, human somatostatin receptor subtype 2 (Homo sapiens, UniProt P30874); experiment: Functional assay for SSTR2 agonists (HTRF cAMP); details: CHO-K1 cells stably expressing human SST2; NKH477-stimulated cAMP; 20 min at 37 C; read-out: hSST2 cAMP Avg EC50
T1 construct: expressed in transfected cells
T1 sequence (P30874 whole entry): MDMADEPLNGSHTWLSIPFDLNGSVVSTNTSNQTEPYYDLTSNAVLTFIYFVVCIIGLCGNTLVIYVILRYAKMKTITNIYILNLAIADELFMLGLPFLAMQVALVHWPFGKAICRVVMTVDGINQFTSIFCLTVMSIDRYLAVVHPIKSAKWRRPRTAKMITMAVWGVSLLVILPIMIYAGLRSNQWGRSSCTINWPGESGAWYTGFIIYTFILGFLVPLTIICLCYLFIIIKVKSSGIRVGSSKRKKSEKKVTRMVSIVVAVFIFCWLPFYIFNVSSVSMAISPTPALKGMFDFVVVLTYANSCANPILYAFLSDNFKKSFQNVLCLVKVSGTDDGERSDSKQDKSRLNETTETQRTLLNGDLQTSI
In short: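 Agonist activity read as fall in intracellular cAMP: HTRF 665/620 nm ratio regressed to a cAMP standard curve, EC50 fitted. Stable human SSTR2 CHO-K1 cells exposed 20 min at 37 °C to compound, final concentrations typically 0-10,000 nM.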

SST2 = target: T2, SST2 (Homo sapiens, UniProt P30874); experiment: PathHunter CHO-K1 SST2 Internalization Assay; details: PathHunter CHO-K1 SST2 cells; 90 min at 37 C; luminescence; read-out: Internalization EC50
T2 construct: host or cells: PathHunter CHO-K1 SST2 cells
T2 sequence (P30874 whole entry): as above
In short: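 Four-parameter nonlinear fits of background-corrected luminescence (duplicate means) gave IC50s. NDCs were serially diluted 1:3 over 11 points from a 10 uM final top concentration and incubated 90 min at 37 C with human SST2 CHO-K1 cells plated 48 h earlier at 2500/well. Beta-Glo read-out developed 60 min at RT.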

[2] = tested on: NCI-H524 human small cell lung cancer cells; experiment: H524 assay: inhibition of cell proliferation (CellTiter Glo); details: 2 h treatment, washout, additional 70 h incubation
In short: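 Proliferation was measured by CellTiter Glo 70 h after a washout that followed a 2 h pulse of NDC. Doses were an 11-point, two-fold dilution series from 1 uM. IC50 was fitted with a four-parameter model to luminescence-based % inhibition relative to control cells.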

Work on `CC[C@H](C)[C@@H]([C@@H](CC(=O)N1CCC[C@H]1[C@H](OC)[C@@H](C)C(=O)N[C@H](C)[C@@H](O)c1ccccc1)OC)N(C)C(=O)[C@@H](NC(=O)[C@H](C(C)C)N(C)C(=O)OCc1ccc(NC(=O)[C@H](C)NC(=O)[C@@H](NC(=O)[C@@H](CS(=O)(=O)O)NC(=O)CCOCCC(=O)NCCNc2ncc(-c3cc(C)cc(F)c3)c(N3CCC(N)CC3)c2-c2nc3ccc(Cl)cc3[nH]2)C(C)C)cc1C(=O)N1CC(C(=O)O)C1)C(C)C` [Compound 78] yielded an EC50 [1] of 0.22 nM, an EC50 (SST2) of 8.7 nM and an EC50 [2] of 350 nM.
`CC[C@H](C)[C@@H]([C@@H](CC(=O)N1CCC[C@H]1[C@H](OC)[C@@H](C)C(=O)N[C@H](C)[C@@H](O)c1ccccc1)OC)N(C)C(=O)[C@@H](NC(=O)[C@H](C(C)C)N(C)C(=O)OCc1ccc(NC(=O)[C@H](CCCNC(N)=O)NC(=O)[C@@H](NC(=O)[C@H](CCC(=O)O)NC(=O)CCOCCC(=O)NCCNc2ncc(-c3cc(C)cc(F)c3)c(N3CCC(N)CC3)c2-c2nc3ccc(Cl)cc3[nH]2)C(C)C)c(C(F)(F)F)c1)C(C)C` [Compound 6] showed an EC50 [1] of 0.21 nM, an EC50 (SST2) of 3.5 nM and an EC50 [2] of 7300 nM.
Molecule `CC[C@H](C)[C@@H]([C@@H](CC(=O)N1CCC[C@H]1[C@H](OC)[C@@H](C)C(=O)N[C@H](C)[C@@H](O)c1ccccc1)OC)N(C)C(=O)[C@@H](NC(=O)[C@H](C(C)C)N(C)C(=O)OCc1ccc(NC(=O)[C@H](CCCNC(N)=O)NC(=O)[C@@H](NC(=O)c2cc(NCCOCCC(=O)NCCNc3ncc(-c4cc(C)cc(F)c4)c(N4CCC(N)CC4)c3-c3nc4ccc(Cl)cc4[nH]3)cc(C(=O)NCC(=O)S(N)(=O)=O)c2)C(C)C)cc1)C(C)C` [Compound 188] has an EC50 [1] of 0.34 nM, an EC50 (SST2) of 2.7 nM and an EC50 [2] of 670 nM.
Work on `CC[C@H](C)[C@@H]([C@@H](CC(=O)N1CCC[C@H]1[C@H](OC)[C@@H](C)C(=O)N[C@H](C)[C@@H](O)c1ccccc1)OC)N(C)C(=O)[C@@H](NC(=O)[C@H](C(C)C)N(C)C(=O)OCc1ccc(NC(=O)[C@H](CCCNC(N)=O)NC(=O)[C@@H](NC(=O)C[C@@H](N)C(=O)NCCOCCC(=O)NCCNc2ncc(-c3cc(C)cc(F)c3)c(N3CCC(N)CC3)c2-c2nc3ccc(Cl)cc3[nH]2)C(C)C)cc1)C(C)C` [Compound 181] yielded an EC50 [1] of 0.38 nM, an EC50 (SST2) of 3.4 nM and an EC50 [2] of 190 nM.
`CC[C@H](C)[C@@H]([C@@H](CC(=O)N1CCC[C@H]1[C@H](OC)[C@@H](C)C(=O)N[C@H](C)[C@@H](O)c1ccccc1)OC)N(C)C(=O)[C@@H](NC(=O)[C@H](C(C)C)N(C)C(=O)OCc1ccc(NC(=O)[C@H](CCCNC(N)=O)NC(=O)[C@@H](NC(=O)CN(C)C(=O)CCOCCC(=O)NCCNc2ncc(-c3cc(C)cc(F)c3)c(N3CCC(N)CC3)c2-c2nc3ccc(Cl)cc3[nH]2)C(C)C)c(O[C@@H]2O[C@H](C(=O)O)[C@@H](O)[C@H](O)[C@H]2O)c1)C(C)C` [Compound 118] was tested, and the EC50 [1] was 0.24 nM, the EC50 (SST2) was 9.3 nM and the EC50 [2] was 22 nM.
Molecule `CC[C@H](C)[C@@H]([C@@H](CC(=O)N1CCC[C@H]1[C@H](OC)[C@@H](C)C(=O)N[C@H](C)[C@@H](O)c1ccccc1)OC)N(C)C(=O)[C@@H](NC(=O)[C@H](C(C)C)N(C)C(=O)OCc1ccc(NC(=O)[C@H](CCCNC(N)=O)NC(=O)[C@@H](NC(=O)c2ccc(NC(=O)CCOCCOCCOCCOCCC(=O)NCCNc3ncc(-c4cc(C)cc(F)c4)c(N4CCC(N)CC4)c3-c3nc4ccc(Cl)cc4[nH]3)cc2O[C@@H]2OC(C(=O)O)[C@@H](O)[C@H](O)[C@H]2O)C(C)C)cc1)C(C)C` (stereo partly drawn) [Compound 183] has an EC50 [1] of 0.074 nM, an EC50 (SST2) of 3.1 nM and an EC50 [2] of 1000 nM.
`CC[C@H](C)[C@@H]([C@@H](CC(=O)N1CCC[C@H]1[C@H](OC)[C@@H](C)C(=O)N[C@H](C)[C@@H](O)c1ccccc1)OC)N(C)C(=O)[C@@H](NC(=O)[C@H](C(C)C)N(C)C(=O)OCc1ccc(NC(=O)[C@H](CCCNC(N)=O)NC(=O)[C@@H](NC(=O)CCOCCC(=O)NCCNc2ncc(-c3cc(C)cc(F)c3)c(N3CCC(N)CC3)c2-c2nc3ccc(Cl)cc3[nH]2)C(C)C)c(OCCO)c1)C(C)C` [Compound 12] was tested, and the EC50 [1] was 0.24 nM, the EC50 (SST2) was 6.9 nM and the EC50 [2] was 3.9 nM.
Molecule `CC[C@H](C)[C@@H]([C@@H](CC(=O)N1CCC[C@H]1[C@H](OC)[C@@H](C)C(=O)N[C@H](C)[C@@H](O)c1ccccc1)OC)N(C)C(=O)[C@@H](NC(=O)[C@H](C(C)C)N(C)C(=O)OCc1ccc(NC(=O)[C@H](CCCNC(N)=O)NC(=O)[C@@H](NC(=O)C[C@@H](N)C(=O)NCCOCCC(=O)NCCNc2ncc(-c3cc(C)cc(F)c3)c(N3CCC(N)CC3)c2-c2nc3ccc(Cl)cc3[nH]2)C(C)C)c(O[C@@H]2O[C@H](C(=O)O)[C@@H](O)[C@H](O)[C@H]2O)c1)C(C)C` [Compound 92] has an EC50 [1] of 0.2 nM, an EC50 (SST2) of 2.5 nM and an EC50 [2] of 680 nM.
For `CC[C@H](C)[C@@H]([C@@H](CC(=O)N1CCC[C@H]1[C@H](OC)[C@@H](C)C(=O)N[C@H](C)[C@@H](O)c1ccccc1)OC)N(C)C(=O)[C@@H](NC(=O)[C@H](C(C)C)N(C)C(=O)OCc1ccc(NC(=O)[C@H](CCCNC(N)=O)NC(=O)[C@@H](NC(=O)CCOCCC(=O)NCCNc2ncc(-c3cc(C)cc(F)c3)c(N3CCC(N)CC3)c2-c2nc3ccc(Cl)cc3[nH]2)C(C)C)c(O[C@@H]2O[C@H](C(=O)NCCOCCC(=O)O)[C@@H](O)[C@H](O)[C@H]2O)c1)C(C)C` [Compound 230], the EC50 [1] was 0.095 nM, the EC50 (SST2) was 4.2 nM and the EC50 [2] was 14 nM.
`CC[C@H](C)[C@@H]([C@@H](CC(=O)N1CCC[C@H]1[C@H](OC)[C@@H](C)C(=O)N[C@H](C)[C@@H](O)c1ccccc1)OC)N(C)C(=O)[C@@H](NC(=O)[C@H](C(C)C)N(C)C(=O)OCc1ccc(NC(=O)[C@H](CCCNC(N)=O)NC(=O)[C@@H](NC(=O)CCOCCC(=O)NCCNc2ncc(-c3cc(C)cc(F)c3)c(N3CCC(N)CC3)c2-c2nc3ccc(Cl)cc3[nH]2)C(C)C)c(O[C@@H]2O[C@H](C(=O)NCCC(=O)N[C@@H](CCCCNC(=O)CCCCc3ccc(I)cc3)C(=O)O)[C@@H](O)[C@H](O)[C@H]2O)c1)C(C)C` [Compound 55] was tested, and the EC50 [1] was 0.25 nM, the EC50 (SST2) was 2 nM and the EC50 [2] was 11 nM.
With `CC[C@H](C)[C@@H]([C@@H](CC(=O)N1CCC[C@H]1[C@H](OC)[C@@H](C)C(=O)N[C@H](C)[C@@H](O)c1ccccc1)OC)N(C)C(=O)[C@@H](NC(=O)[C@H](C(C)C)N(C)C(=O)OCc1ccc(NC(=O)[C@H](C)NC(=O)[C@@H](NC(=O)CCOCCC(=O)NCCNc2ncc(-c3cc(C)cc(F)c3)c(N3CCC(N)CC3)c2-c2nc3ccc(Cl)cc3[nH]2)C(C)C)c(O)c1)C(C)C` [Compound 17] the EC50 [1] was 0.44 nM, the EC50 (SST2) was 3.8 nM and the EC50 [2] was 5.4 nM.
For `CC[C@H](C)[C@@H]([C@@H](CC(=O)N1CCC[C@H]1[C@H](OC)[C@@H](C)C(=O)N[C@H](C)[C@@H](O)c1ccccc1)OC)N(C)C(=O)[C@@H](NC(=O)[C@H](C(C)C)N(C)C(=O)OCc1ccc(NC(=O)[C@H](CCCNC(N)=O)NC(=O)[C@@H](NC(=O)CCOCCC(=O)NCCNc2ncc(-c3cc(C)cc(F)c3)c(N3CCC(N)CC3)c2-c2nc3ccc(Cl)cc3[nH]2)C(C)C)cc1C(=O)NOCCN)C(C)C` [Compound 88], the EC50 [1] was 0.25 nM, the EC50 (SST2) was 3.1 nM and the EC50 [2] was 84 nM.
`CC[C@H](C)[C@@H]([C@@H](CC(=O)N1CCC[C@H]1[C@H](OC)[C@@H](C)C(=O)N[C@H](C)[C@@H](O)c1ccccc1)OC)N(C)C(=O)[C@@H](NC(=O)[C@H](C(C)C)N(C)C(=O)OCc1ccc(NC(=O)[C@H](CCCNC(N)=O)NC(=O)[C@@H](NC(=O)[C@H](CCC(=O)O)NC(=O)CCOCCOCCOCCOCCC(=O)NCCNc2ncc(-c3cc(C)cc(F)c3)c(N3CCC(N)CC3)c2-c2nc3ccc(Cl)cc3[nH]2)C(C)C)cc1C(=O)N1CC(N)C1)C(C)C` [Compound 65] was tested, and the EC50 [1] was 0.074 nM, the EC50 (SST2) was 3.4 nM and the EC50 [2] was 17 nM.
`CC[C@H](C)[C@@H]([C@@H](CC(=O)N1CCC[C@H]1[C@H](OC)[C@@H](C)C(=O)N[C@H](C)[C@@H](O)c1ccccc1)OC)N(C)C(=O)[C@@H](NC(=O)[C@H](C(C)C)N(C)C(=O)OCc1ccc(NC(=O)[C@H](CCCNC(N)=O)NC(=O)[C@@H](NC(=O)CCOCCC(=O)N(C)CC(=O)NCCNc2ncc(-c3cc(C)cc(F)c3)c(N3CCC(N)CC3)c2-c2nc3ccc(Cl)cc3[nH]2)C(C)C)c(O[C@@H]2O[C@H](C(=O)O)[C@@H](O)[C@H](O)[C@H]2O)c1)C(C)C` [Compound 133] showed an EC50 [1] of 0.097 nM, an EC50 (SST2) of 5.3 nM and an EC50 [2] of 1900 nM.
Molecule `CC[C@H](C)[C@@H]([C@@H](CC(=O)N1CCC[C@H]1[C@H](OC)[C@@H](C)C(=O)N[C@H](C)[C@@H](O)c1ccccc1)OC)N(C)C(=O)[C@@H](NC(=O)[C@H](C(C)C)N(C)C(=O)OCc1ccc(NC(=O)[C@H](CCCNC(N)=O)NC(=O)[C@@H](NC(=O)[C@@H](CCC(=O)O)NC(=O)CCOCCC(=O)NCCNc2ncc(-c3cc(C)cc(F)c3)c(N3CCC(N)CC3)c2-c2nc3ccc(Cl)cc3[nH]2)C(C)C)cc1C(=O)NCCN)C(C)C` [Compound 25] has an EC50 [1] of 0.29 nM, an EC50 (SST2) of 6.5 nM and an EC50 [2] of 41 nM.
Molecule `CC[C@H](C)[C@@H]([C@@H](CC(=O)N1CCC[C@H]1[C@H](OC)[C@@H](C)C(=O)N[C@H](C)[C@@H](O)c1ccccc1)OC)N(C)C(=O)[C@@H](NC(=O)[C@H](C(C)C)N(C)C(=O)OCc1ccc(NC(=O)[C@H](C)NC(=O)[C@@H](NC(=O)[C@H](CS(=O)(=O)O)NC(=O)CCOCCC(=O)NCCNc2ncc(-c3cc(C)cc(F)c3)c(N3CCC(N)CC3)c2-c2nc3ccc(Cl)cc3[nH]2)C(C)C)cc1C(=O)NCCN)C(C)C` [Compound 27] has an EC50 [1] of 0.12 nM, an EC50 (SST2) of 7.2 nM and an EC50 [2] of 190 nM.
